Experimental data: PubChem BioAssay AID1117347 (Cheminformatics & Chemogenomics Research Group (CCRG), …, 2015)
Several values for one entry are separate records, joined by “and”; a condition that tells them apart may be missing. Equal entries are not always repeated. Activity calls are given as the source filed them. The rule behind the calls is not given here.

Test system: HeLa cell count decrease
Assay: decrease in HeLa cell numbers, dose-response curve, cell enumeration, 50% inhibitory concentration (AID 1117347)

| Structure (SMILES) | IC50 |
| --- | --- |
| CCc1oc2ccccc2c1C(=O)c1cc(Br)c(O)c(Br)c1 | > 10000 nM (inactive) |
| COc1cc2c(c(OC)c1OC)-c1ccc(OC)c(=O)cc1[C@@H](NC(C)=O)CC2 | 1.88 nM |
| Cc1ccc(CCn2c3c(c4cc(Cl)ccc42)CN(C)CC3)cn1 | > 10000 nM (inactive) |
| O=c1[nH]c(=O)n([C@H]2C[C@H](O)[C@@H](CO)O2)cc1I | > 10000 nM (inactive) |
| CC[n+]1c(-c2ccccc2)c2cc(N)ccc2c2ccc(N)cc21 | > 10000 nM (inactive) |
| CC(=O)Nc1ccn(C2COC(COC(=O)c3ccccc3)O2)c(=O)n1 (centres undefined) | 281 nM |
| Cc1ccc(Nc2nccc(N(C)c3ccc4c(C)n(C)nc4c3)n2)cc1S(N)(=O)=O | > 10000 nM (inactive) |
| O=[N+]([O-])c1ccc(Oc2ccc(N=C=S)cc2)cc1 | > 10000 nM (inactive) |
| CC(C)n1c(/C=C/[C@@H](O)C[C@@H](O)CC(=O)O)c(-c2ccc(F)cc2)c2ccccc21 | > 10000 nM (inactive) |
| Clc1ccccc1C(c1ccccc1)(c1ccccc1)n1ccnc1 | > 10000 nM (inactive) |
| O=C(O)CN(CCN(CC(=O)O)CC(=O)O)CCN(CC(=O)O)CC(=O)O | > 10000 nM (inactive) |
| CCCCc1ccc2nc(NC(=O)OC)[nH]c2c1 | 5.66 nM |
| CSc1ccc2c(c1)C(N1CCN(C)CC1)Cc1ccccc1S2 (centres undefined) | > 10000 nM (inactive) |
| Cc1cc(=O)c2c(O)c3c(O)cc(=O)c4c3c3c(cc(O)c1c23)C(C)(C)C=4O | 1000 nM |
| Nc1ccc2cc3ccc(N)cc3nc2c1 | 1340 nM |
| O=c1[nH]c(=O)n([C@H]2C[C@H](O)[C@@H](CO)O2)cc1F | > 10000 nM (inactive) |
| O=C1c2c(O)cccc2Cc2cccc(O)c21 | > 10000 nM (inactive) |
| O=C1[C@H]2CCCC[C@H]2C(=O)N1CCCCN1CCN(c2nsc3ccccc23)CC1 | > 10000 nM (inactive) |
| CCCCC(CC)CN=C(N)NC(N)=NCCCCCCN=C(N)NC(N)=NCC(CC)CCCC (centres undefined) | 18.6 nM |
| O[C@@H](CNC[C@H](O)[C@H]1CCc2cc(F)ccc2O1)[C@@H]1CCc2cc(F)ccc2O1 | 5560 nM (inactive) |
| C[C@]12CC[C@@H]3c4ccc(O)cc4CC[C@H]3[C@@H]1CC[C@@H]2OC(=O)CCC1CCCC1 | > 10000 nM (inactive) |
| Fc1ccc(C(OCCN2CCN(CCCc3ccccc3)CC2)c2ccc(F)cc2)cc1 | 3200 nM |
| CCN(CC)CCCC(C)Nc1c2ccc(Cl)cc2nc2ccc(OC)cc12 (centres undefined) | 1330 nM |
| COc1cc(-c2ccc(=O)[nH]n2)ccc1OC(F)F | 9.2 nM |

| Structure (SMILES) | IC50 |
| --- | --- |
| CCOc1ccc2nc3cc(N)ccc3c(N)c2c1 | 2110 nM |
| CCN(CC)CCNc1ccc(CO)c2sc3ccccc3c(=O)c12 | 5920 nM (inactive) |
| O=C1C(I)=CC(=C(c2cc(I)c(O)c(I)c2)c2ccccc2C(=O)O)C=C1I | > 10000 nM (inactive) |
| CC[C@]1(O)C[C@@H]2CN(CCc3c([nH]c4ccccc34)[C@@](C(=O)OC)(c3cc4c(cc3OC)N(C)[C@H]3[C@@](O)(C(=O)OC)[C@H](OC(C)=O)[C@]5(CC)C=CCN6CC[C@]43[C@@H]65)C2)C1 | 5.21 nM and 2.6 nM |
| CC[C@H]1CN2CCc3cc(OC)c(OC)cc3[C@@H]2C[C@@H]1C[C@H]1NCCc2cc(OC)c(OC)cc21 | 32.7 nM |
| Cc1nc2ccc(CN(C)c3ccc(C(=O)N[C@@H](CCC(=O)O)C(=O)O)s3)cc2c(=O)[nH]1 | > 10000 nM (inactive) |
| CCCCCCCCCCOCC(O)CN (centres undefined) | > 10000 nM (inactive) |
| Cc1ccccc1C(OCCN(C)C)c1ccccc1 (centres undefined) | > 10000 nM (inactive) |
| CC[C@]1(O)C[C@H]2CN(CCc3c([nH]c4ccccc34)[C@@](C(=O)OC)(c3cc4c(cc3OC)N(C=O)[C@H]3[C@@](O)(C(=O)OC)[C@H](OC(C)=O)[C@]5(CC)C=CCN6CC[C@]43[C@@H]65)C2)C1 | 6.5 nM |
| CC[C@@H]([C@H](C)O)n1ncn(-c2ccc(N3CCN(c4ccc(OC[C@@H]5CO[C@@](Cn6cncn6)(c6ccc(F)cc6F)C5)cc4)CC3)cc2)c1=O | > 10000 nM (inactive) |
| CCCCCCCCCCCCCC[N+](C)(C)C | 3320 nM |
| CCCCCCCCCCCC[N+](C)(C)Cc1ccccc1 | > 10000 nM (inactive) |
| CCCNCC(O)COc1ccccc1C(=O)CCc1ccccc1 (centres undefined) | > 10000 nM (inactive) |
| CN(C)CCC=C1c2ccccc2CCc2ccccc21 | > 10000 nM (inactive) |
| COC(=O)c1nc(Cl)c(Cl)nc1N | 408 nM |
| CCN1/C(=C/C=C/c2sc3ccccc3[n+]2CC)Sc2ccccc21 | 36 nM |
| NC(=NCCCCCCN=C(N)/N=C(\N)Nc1ccc(Cl)cc1)/N=C(\N)Nc1ccc(Cl)cc1 | 6710 nM (inactive) |
| N[C@@H](Cc1ccc(N(CCCl)CCCl)cc1)C(=O)O | 390 nM |
| CO[C@@]12[C@H](COC(N)=O)C3=C(C(=O)C(C)=C(N)C3=O)N1C[C@@H]1N[C@@H]12 | 77.3 nM |
| COc1ccc(Cc2nccc3cc(OC)c(OC)cc23)cc1OC | > 10000 nM (inactive) |
| O=C(Nc1ccc([N+](=O)[O-])cc1Cl)c1cc(Cl)ccc1O | 144 nM |
| CCCCCCCCCCCCCCCC[n+]1ccccc1 | 404 nM |
| Cc1ccc([N+](=O)[O-])[c]2c1[O][Hg]2 | 385 nM |
| Oc1c(I)cc(I)c2cccnc12 | > 10000 nM (inactive) |

| Structure (SMILES) | IC50 |
| --- | --- |
| NC(N)=NN=C(/C=C/c1ccc([N+](=O)[O-])o1)/C=C/c1ccc([N+](=O)[O-])o1 | > 10000 nM (inactive) |
| COc1cc(NC(C)CCCN)c2ncccc2c1 (centres undefined) | > 10000 nM (inactive) |
| Cc1cc(N)c2ccccc2[n+]1CCCCCCCCCC[n+]1c(C)cc(N)c2ccccc21 | > 10000 nM (inactive) |
| NCCNc1ccc(NCCN)c2c1C(=O)c1ccncc1C2=O | 42.1 nM |
| CN1CCCC(CC2c3ccccc3Sc3ccccc32)C1 (centres undefined) | > 10000 nM (inactive) |
| CN1CC[C@H](c2c(O)cc(O)c3c(=O)cc(-c4ccccc4Cl)oc23)[C@H](O)C1 | 21.2 nM |
| Cc1cc(C2CCCCC2)n(O)c(=O)c1 | 569 nM |
| CCCSc1ccc2nc(NC(=O)OC)[nH]c2c1 | 37.7 nM |
| COc1ccc(-c2nc3ccc(C4=NNC(=O)CC4C)cc3[nH]2)cc1 (centres undefined) | 7230 nM (inactive) |
| CC[C@@]1(O)C(=O)OCc2c1cc1n(c2=O)Cc2cc3c(CN(C)C)c(O)ccc3nc2-1 | 9 nM |
| CO[C@@H]1[C@@H](OC)[C@H](C)[C@@](O)(CC(=O)O)O[C@H]1[C@H](C)[C@H]1O[C@@]2(CC[C@@](C)([C@H]3CC[C@@](C)([C@@H]4O[C@@H]([C@H]5O[C@](C)(O)[C@H](C)C[C@@H]5C)C[C@@H]4OC4C[C@H](OC)[C@@H](OC)[C@H](C)O4)O3)O2)C[C@H](O)[C@H]1C (some centres undefined) | 2750 nM |
| CC(C)C[C@H](NC(=O)[C@H](CCc1ccccc1)NC(=O)CN1CCOCC1)C(=O)N[C@@H](Cc1ccccc1)C(=O)N[C@@H](CC(C)C)C(=O)[C@@]1(C)CO1 | 9.9 nM |
| Clc1ccc(Nc2nnc(Cc3ccncc3)c3ccccc23)cc1 | > 10000 nM (inactive) |
| C[C@@H]1C[C@@H]([C@H](O)CC2CC(=O)NC(=O)C2)C(=O)[C@@H](C)C1 | 542 nM |
| C=CC(=O)Nc1cc2c(Nc3ccc(F)c(Cl)c3)ncnc2cc1OCCCN1CCOCC1 | 2090 nM |
| [O-][n+]1ccccc1SSc1cccc[n+]1[O-] | 842 nM |
| O=c1[nH]cc(F)c(=O)[nH]1 | > 10000 nM (inactive) |
| CCCN(CCC)C(=O)C(CCC(=O)OCCCN1CCN(CCOC(=O)Cc2c(C)n(C(=O)c3ccc(Cl)cc3)c3ccc(OC)cc23)CC1)NC(=O)c1ccccc1 (centres undefined) | 5480 nM (inactive) |
| COC(=O)Nc1nc2ccc(S(=O)c3ccccc3)cc2[nH]1 (centres undefined) | 258 nM |
| C[C@@H](O[C@H]1OCCN(Cc2n[nH]c(=O)[nH]2)[C@H]1c1ccc(F)cc1)c1cc(C(F)(F)F)cc(C(F)(F)F)c1 | > 10000 nM (inactive) |
| Cc1ccc2c(c1)c1c3n2CCNC3CCC1 (centres undefined) | > 10000 nM (inactive) |
| O=[N+]([O-])c1ccc(O)c2ncccc12 | 295 nM |
| O=C1C2CC=CCC2C(=O)N1SC(Cl)(Cl)Cl (centres undefined) | 1780 nM |
| Cc1ccccc1C(=O)Nc1ccc(C(=O)N2CCCC(N(C)C)c3ccccc32)cc1 (centres undefined) | 2910 nM |

| Structure (SMILES) | IC50 |
| --- | --- |
| CC(C)c1c(C(=O)Nc2ccccc2)c(-c2ccccc2)c(-c2ccc(F)cc2)n1CC[C@@H](O)C[C@@H](O)CC(=O)O | > 10000 nM (inactive) |
| O=C(O)CCCc1ccc(N(CCCl)CCCl)cc1 | > 10000 nM (inactive) |
| CN(C)CCOC(c1ccccc1)c1ccc(Br)cc1 (centres undefined) | > 10000 nM (inactive) |
| CN(Cc1cnc2nc(N)nc(N)c2n1)c1ccc(C(=O)N[C@@H](CCC(=O)O)C(=O)O)cc1 | > 10000 nM (inactive) |
| Nc1nc(F)nc2c1ncn2[C@@H]1O[C@H](CO)[C@@H](O)[C@@H]1O | > 10000 nM (inactive) |
| O=C(Nc1ccc(Br)cc1)c1cc(Br)cc(Br)c1O | > 10000 nM (inactive) |
| Cc1cc2c(C(C)C)c(O)c(O)c(C=O)c2c(O)c1-c1c(C)cc2c(C(C)C)c(O)c(O)c(C=O)c2c1O | 3710 nM |
| CCc1oc2ccccc2c1C(=O)c1cc(I)c(O)c(I)c1 | > 10000 nM (inactive) |
| COC(=O)Nc1nc2ccc(C(=O)C3CC3)cc2[nH]1 | 297 nM |
| CC(C)=CCNc1ncnc2c1ncn2[C@@H]1O[C@H](CO)[C@@H](O)[C@H]1O | 995 nM |
| O=C(O)c1ccc(-n2nc(-c3ccccc3O)nc2-c2ccccc2O)cc1 | 5680 nM (inactive) |
| CCCCCCCCCCCCCCCCNc1ccc(C(=O)O)cc1 | > 10000 nM (inactive) |
| CCCCCCC[N+](CC)(CC)CCCCc1ccc(Cl)cc1 | > 10000 nM (inactive) |
| Cc1c(C)c2c(c(C)c1O)CCC(C)(COc1ccc(CC3SC(=O)NC3=O)cc1)O2 (centres undefined) | > 10000 nM (inactive) |
| CCC(=O)c1ccc(O)cc1 | > 10000 nM (inactive) |
| COc1cccc2c1C(=O)c1c(O)c3c(c(O)c1C2=O)C[C@@](O)(C(=O)CO)C[C@@H]3O[C@H]1C[C@H](N)[C@H](O[C@@H]2CCCCO2)[C@H](C)O1 | 51.4 nM |
| COc1ccc(/C=C/C(=O)c2ccc(OC)cc2OC)cc1 | 708 nM |
| CCC(C)(C)C(=O)O[C@H]1C[C@@H](C)C=C2C=C[C@H](C)[C@H](CC[C@@H]3C[C@@H](O)CC(=O)O3)[C@H]21 | > 10000 nM (inactive) |
| CC(C)=CCOc1ccc(/C=C/C(=O)c2ccc(OCC=C(C)C)cc2OCC(=O)O)cc1 | > 10000 nM (inactive) |
| CCN(CC)CCOc1ccc(/C(=C(\Cl)c2ccccc2)c2ccccc2)cc1 | > 10000 nM (inactive) |
| COc1cccc2c1C(=O)c1c(O)c3c(c(O)c1C2=O)C[C@@](O)(C(C)=O)C[C@@H]3O[C@H]1C[C@H](N)[C@H](O)[C@H](C)O1 | 8.05 nM |
| COc1c(C)c2c(c(O)c1C/C=C(\C)CCC(=O)OCCN1CCOCC1)C(=O)OC2 | > 10000 nM (inactive) |
